Source: patent publication US20180119105A1, “METHOD FOR PRODUCTION OF INSULIN-PRODUCING CELLS” (University of Copenhagen, priority 2015, published 2018)

Experiments:
[1] = system: hES cell derived pancreatic progenitors (PDX1-eGFP); test: Immunostaining (C-peptide, Glucagon, GFP) of hES cell derived pancreatic progenitors treated with verteporfin for 5 days; format: cell-based, human
Source text: FIG. 7: Treating hES cell derived pancreatic progenitors with verteporfin for 5 days leads to enhanced insulin expression. Stable PDX1-eGFP human ES cells were differentiated to pancreatic progenitor stage and treated with either DMSO (controls) or Verteporfin for 5 days and immuno stained with C-peptide (white), Glucagon (dark grey) and GFP PDX1 (light grey). Verteporfin-treated progenitors show enhanced endocrine/beta cell differentiation and express higher levels of C-peptide, whereas DMSO treated cells express low levels of C-peptide and Glucagon.
(§1) The verteporfin treatment directed the pancreatic progenitors to endocrine lineage differentiation at the expense of acinar lineage.

[2] = system: hES cell derived pancreatic progenitors (PDX1 eGFP); test: qRT PCR analysis of hES cell derived pancreatic progenitors treated with verteporfin for 5 days; format: cell-based, human; settings: verteporfin 5 days
Procedure: FIG. 6: Treatment with verteporfin for 5 days leads to enhanced expression of islet specific genes. […] Expression of NKX6.1 is not altered, as it is expressed in both pancreatic progenitors and mature beta-cells. […]
(§2) We cultured the hES PDX1 GFP cells using a modified protocol from Rezania et al 2010 (see below for the exact protocol, outlined in FIG. 5A) that efficiently generates pancreatic progenitors mostly expressing PDX1, NKX6.1. Briefly, Hues4 hES PDX1 GFP cells were cultured on feeder-free DEF system (““DEF-CS™”, Cellectis stem cells, Cellartis AB”) until full confluency. When full confluency was reached the cells were subjected to differentiation as follows for 5 different stages to obtain insulin producing mature Beta cells.
(§3) Cells were cultured in RPMI medium with 3 μM CHIR99021 (a Wnt activator) for 1 day. During the second day the cells were treated with 100 ng/ml Activin A. For days 3 and 4 the cells were treated with 100 ng/ml Activin A along with 2% (v/v) B27.
(§4) The cultures were exposed to F12 media containing 2% B27, 2 gm/L Sodium bicarbonate along with 0.25 mM Vitamin C and 50 ng/ml FGF7 for two days.
(§5) The cultures were continued for four days in DMEM high glucose media along with 2% B27, 2 g/L Sodium bicarbonate, 0.25 mM Vitamin C, 2 ng/ml FGF7, 0.25 μM Sant1, 100 ng/ml Noggin and 2 μM Retinoic acid.
(§6) Stage 4 cells were cultured for 5 days to obtain PDX1 and NKX6.1 expressing pancreatic progenitor cells by culturing in 2% B27, 2 gm/L Sodium bicarbonate, 0.25 mM Vitamin C, 100 ng/ml Noggin and 500 nM TPB (PKC activator).
(§7) To obtain insulin expressing, MAFA positive mature Beta cells, the cultures were treated with the YAP-TEAD inhibitor Verteporfin at a concentration of 1 μg/ml in Stage 4 medium and cultured for another 4-9 days.
(§8) After culturing the cells for the first 4 stages above (around 15 days), the differentiated hES cells were enriched for PDX1 expression as they expressed GFP. These enriched pancreatic progenitor cultures were treated with the YAP1 -TEAD chemical inhibitor Verteporfin for an additional 4-5 days and checked for gene expression (stage 5). As expected from mouse studies, inhibition of YAP1 activity in the PDX1 enriched cells, using verteporfin after 4 days led to efficient and enhanced endocrine differentiation especially towards insulin producing beta cells at the expense of acinar lineage.
as §1

[3] = system: Stable Pdx1 Gfp human ES cells differentiated to pancreatic progenitor stage; test: Immunostaining (c-peptide, Neurogenin3) with confocal microscopy of hES cell derived pancreatic progenitors treated with VP for 5 days; format: cell-based; settings: VP 1 μg/ml, compared to DMSO treated cells
Procedure: FIG. 8: hES cell derived pancreatic progenitors treated with VP for 5 days show enhanced endocrine differentiation & Insulin expression. Stable Pdx1 Gfp human ES cells were differentiated to pancreatic progenitor stage and then treated with either DMSO (control) or Verteporfin (VP, 1 μg/ml) for 5 additional days. Cultures were immuno-stained with c-peptide (light grey) and Neurogenin3 (dark grey) antibodies and imaged using confocal microscope.
Stable Pdx1 Gfp human ES cells were differentiated to pancreatic progenitor stage and then treated with either DMSO (control) or Verteporfin (VP, 1 μg/ml) for 5 additional days. Cultures were immuno-stained with c-peptide and Neurogenin3 antibodies and imaged using confocal microscopy (FIG. 8).

[4] = system: hES cell derived pancreatic progenitors (PDX1 eGFP); test: qRT PCR analysis of hES cell derived pancreatic progenitors treated with verteporfin for 4 days; format: cell-based, human; settings: 1 μg/ml verteporfin, compared to DMSO treated control cultures
Procedure: FIG. 5: Inhibition of YAP1 in hES cell derived pancreatic progenitors leads to β-cell differentiation. (A) Outline of the 15 day protocol (modified from Rezania et al, 2010) used to generate pancreatic progenitors from human ES cells. At the end of the protocol the majority of cells express the progenitor markers PDX1 and NKX6.1. The YAP1-TEAD inhibitor Verteporfin (VP) was added to the medium during PE day 4 and the cells were treated for either 4 or 5 days. […] Y axis: relative mRNA expression as fold change.
as §2, §3, §4, §5, §6, §7, §8

[5] = system: Wild type C57bl6 mouse pancreatic explants at E11.5; test: RT-qPCR of endocrine gene expression in mouse pancreatic explants cultured ex-vivo with Verteporfin; format: cell-based; settings: 1 μg/ml Verteporfin for 72 hours; RT-qPCR after 6 days of culture; fold change relative to Ecad expression
Procedure: FIG. 4: Inhibition of Yap1 using Verteporfin in wild type mouse pancreatic explants leads to enhanced endocrine differentiation. Wild type C57bl6 mouse pancreatic explants at E11.5 embryonic stages were cultured ex-vivo for initial 24 hrs in normal culture media supplemented with 1 ug/ml Verteporfin for 72 hours and again in normal culture media without Verteporfin for another 48 hours. The explants were analyzed by RT-qPCR for endocrine gene expression after 6 days of culture. […] This ultimately leads to enhanced endocrine differentiation as analysed for Insulin (E) and Glucagon (F) expression. Y axis: relative expression (fold change relative to Ecad expression).
Wild type C57bl6 mouse pancreatic explants at E11.5 embryonic stages were cultured ex-vivo for initial 24 hours in normal culture media supplemented with 1 μg/ml Verteporfin for 72 hours and again in normal culture media without Verteporfin for another 48 hours. The explants were analyzed by RT-qPCR for endocrine gene expression after 6 days of culture. […] Expression of these genes is characteristic of islet cell fate.

[6] = verteporfin 5 days vs DMSO, immunostaining
[7] = fold-change versus DMSO control

Verteporfin
MAFA status of Insulin expressing cells ([1]; verteporfin 5 days): positive for MAFA
Glucagon protein expression [1, 6]: enhanced
insulin (c-peptide) protein expression [1, 6]: enhanced
insulin mRNA levels up-regulated ([2]; compared to DMSO control cultures): 5 fold
INSM1 mRNA expression ([2]; compared to day 4 cultures): up-regulation
ISL1 mRNA expression ([2]; compared to day 4 cultures): up-regulation
MAFA mRNA expression ([2]; compared to day 4 cultures): up-regulation
CPA1 mRNA expression (exocrine gene) [2, 7]: down-regulation
Glucagon mRNA expression [2, 7]: down-regulation
MAFB mRNA expression [2, 7]: up-regulation
NKX6.1 mRNA expression [2, 7]: not altered
Neurogenin3 (NGN3) mRNA expression [2, 7]: up-regulation
PTF1a mRNA expression (exocrine gene) [2, 7]: down-regulation
Ngn3 level (immunostaining) [3]: higher levels
c-peptide level (immunostaining) [3]: higher levels
CPA1 mRNA expression (exocrine gene) [4]: down-regulated
Glucagon mRNA expression [4]: up-regulation
ISL-1 mRNA expression [4]: up-regulation
Insulin mRNA expression [4]: up-regulation
MAFA mRNA expression [4]: up-regulation
MAFB mRNA expression [4]: up-regulation
PTF1a mRNA expression (exocrine gene) [4]: down-regulated
Arx expression [5]: significant up-regulation
Glucagon expression [5]: increased expression
Insm1 expression [5]: significant up-regulation
Insulin expression [5]: increased expression
NeuroD expression [5]: significant up-regulation
Neurogenin (Ngn3) expression [5]: significant up-regulation
